The record followed here is the METLIN SMRT retention time set (Domingo-Almenara et al. 2019).

A short description of this data set: gradient 5% acetonitrile 3 min, to 50% in 2 min, to 85% in 15 min, held 3 min, 100 µL/min. As to conditions: column: Zorbax Extend-C18 2.1 x 50 mm; eluents: water / acetonitrile, 0.1% formic acid. An outline of the steps:
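Over 3 months, pure standards in mixtures of ~100 molecules were run by HPLC coupled to a quadrupole time-of-flight mass spectrometer in positive and negative ionization mode. The column was a Zorbax Extend-C18 (2.1 × 50 mm, 1.8 μm) at 100 μL/min, eluted with water and acetonitrile each holding 0.1% formic acid, with 40 μL dead and 900 μL dwell volumes. Retention time was determined from adduct peaks chosen by software and checked manually.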
`CCOC(=O)c1c(NC(=O)CSc2nc(=O)n3cccc(C)c3n2)sc2c1CCC2` came in with an RP-LC retention time of 950 s.

On to `O=C(NCCc1cn2c(n1)SCC2)C(=O)Nc1ccc(F)cc1`, for which the RP-LC retention time was 542 s.

`O=C(Nc1ccc(OCC(=O)N2CCN(c3ncccn3)CC2)nc1)C1CC1`: the RP-LC retention time worked out at 624 s.

In turn, `O=C1CCCc2nc(N3CCN(CCO)CC3)nc(Nc3ccccc3)c21` yielded an RP-LC retention time of 644 s.

On to `CCCS(=O)(=O)N1CCC(c2nnc(C3CC3)s2)CC1`, for which the RP-LC retention time stood at 684 s.

For `Cc1cc2c(cc1S(=O)(=O)N1CCCC1C(=O)N1CCN(c3ccccc3)CC1)OCC(=O)N2` (stereo not drawn), the RP-LC retention time is 747 s.

As to `CC(C)c1cc(=O)n(CC(=O)Nc2cccc(-c3cn4c(n3)SCC4)c2)cn1`, the RP-LC retention time came to 568 s.

In the case of `CCCCN1CN(c2ccc(C)cc2)c2ncccc2S1(=O)=O`, the RP-LC retention time was determined as 1110 s.

In the case of `COc1ccc(N2CC(c3nc(-c4cccc(-c5ccnn5C)c4)no3)CC2=O)cc1` (stereo not drawn), the RP-LC retention time worked out at 844 s.

Consider `CN(C)c1ccc(CNC(=O)C2CCN(c3cnc4nccnc4c3)CC2)cc1`, for which the RP-LC retention time turned out to be 562 s.

`Cc1cccc(-c2nnc(SCc3cc(=O)n4ccsc4n3)o2)c1` registered an RP-LC retention time of 821 s.

Consider `Cc1cccc(NS(=O)(=O)c2ccc3c(c2)C(=O)N(C)c2ncccc2O3)c1C`, for which the RP-LC retention time came to 970 s.

Consider `CSc1cccc(NC(=O)c2nnn(Cc3ccc(F)cc3)c2-n2cccc2)c1`, for which the RP-LC retention time is 1150 s.

The molecule `Cn1c(N2CCCN(C(=O)c3ccc(Br)cc3)CC2)cc(=O)n(C)c1=O` showed an RP-LC retention time of 664 s.

On to `Cn1ncc2c(N3CCSCC3)nc(C(=O)N3CCN(c4ccccc4)CC3)nc21`, for which the RP-LC retention time was 830 s.

For `COc1cc(-c2nc3sc4c(c3c(=O)o2)CCC4)cc(OC)c1OC`, the RP-LC retention time was 1090 s.

`O=C(Cn1cc(C(=O)C(=O)N2CCCC2)c2ccccc21)NCc1ccc2c(c1)OCCCO2` came in with an RP-LC retention time of 786 s.

The molecule `O=C(c1ccc(F)c(Cl)c1)N1CCCC1c1nc(-c2ccccc2)no1` (stereo not drawn) yielded an RP-LC retention time of 1040 s.

Turning to `O=C(Nc1ccc2c(c1)OCO2)C(=O)NC1CC1`, the RP-LC retention time stood at 677 s.

For the molecule `Cc1ccc2nc(NC(=O)C3CCN(C(=O)C4Sc5ccccc5NC4=O)CC3)sc2c1` (stereo not drawn), the RP-LC retention time was determined as 838 s.

`CCN1CCN(c2cc(C(=O)O)c3cc(NS(=O)(=O)c4cc(F)ccc4F)ccc3n2)CC1` displayed an RP-LC retention time of 594 s.

Turning to `CCc1cc(=O)n(CC(=O)NCc2ccc(F)cc2)c(N2CCOCC2)n1`, the RP-LC retention time stood at 717 s.

Molecule `O=C(CC1=C2CCCCC2NC1=O)NCCc1c[nH]c2ccccc12` (stereo not drawn) yielded an RP-LC retention time of 673 s.

On to `Cc1cc(C)n(-c2nc(CC(=O)Nc3nc(-c4ccccc4)cs3)cs2)n1`, for which the RP-LC retention time was 1120 s.

`Cc1cc(=O)n(CC(=O)Nc2ccccc2Cl)c(N2CCOCC2)n1` yielded an RP-LC retention time of 863 s.

On to `Cc1cc(C)cc(C(=O)N2CCN(c3nnc4ccccn34)CC2)c1`, for which the RP-LC retention time was determined as 657 s.

Consider `O=C(Cn1ccc2ccc(N3CCCCC3)nc21)NCc1ccc(F)cc1Cl`, for which the RP-LC retention time came out at 991 s.

As for `CN(C)c1ccc(-c2noc(C3CC(=O)N(c4ccc5c(c4)OCCO5)C3)n2)cc1` (stereo not drawn), the RP-LC retention time is 920 s.

In turn, `Cc1ccc(C(=O)N2CCCCCNC(=O)[C@@H]3CCC[C@@H]32)s1` yielded an RP-LC retention time of 740 s.

`O=C1CSc2ccc(S(=O)(=O)N3CCC(C(=O)NC4CC4)CC3)cc2N1` showed an RP-LC retention time of 662 s.

The molecule `O=C(NCc1csc(-c2cccs2)n1)C1CCN(C(=O)Cc2ccc(F)cc2)CC1` had an RP-LC retention time of 778 s.

Consider `Cc1c(-c2cc(NS(=O)(=O)c3ccccc3Cl)n(C)n2)sc2ccc(Cl)cc12`, for which the RP-LC retention time is 1160 s.

As for `CCOc1ccc(NC(=O)C2(C)Oc3cccnc3N(CC)C2=O)cc1` (stereo not drawn), the RP-LC retention time was found to be 913 s.

The molecule `CC(C)(C)CC(=O)N1CCc2nc(-c3ccccc3)ncc2C1` showed an RP-LC retention time of 934 s.

In the case of `CN1C(=O)c2cc(C(=O)N3CCN(c4ccccc4F)CC3)nn2CC1(C)C(=O)NC1CCCCC1` (stereo not drawn), the RP-LC retention time was 834 s.

In the case of `O=C(NC1CCCCC1)N1CCN(c2ncccc2-c2nnc(C3CC3)o2)CC1`, the RP-LC retention time was 745 s.

`CN1C(=O)c2cccnc2Sc2cc(NC(=O)c3cccs3)ccc21` came in with an RP-LC retention time of 745 s.

`COc1ccc(-c2nc3cnccn3c2Nc2cccc(Cl)c2C)cc1`: the RP-LC retention time stood at 965 s.

`O=C(Nc1ccc(F)cc1Cl)c1cccn1Cc1noc(C2CC2)n1`: the RP-LC retention time was determined as 924 s.

Turning to `CS(=O)(=O)Nc1ccc(-c2noc(CN3C(=O)COc4ccc(Cl)cc43)n2)cc1`, the RP-LC retention time came to 879 s.

Molecule `COCCNC(=O)CC1CCN(C(=O)c2[nH]c(C)c(C)c2C)CC1` had an RP-LC retention time of 657 s.

In turn, `CC(C(=O)NCCc1ccccc1)n1cnc2nc(N3CCCCC3)ncc2c1=O` (stereo not drawn) returned an RP-LC retention time of 810 s.

`COc1cccc(Cn2cc(S(=O)(=O)N3CCCC3)ccc2=O)c1` had an RP-LC retention time of 779 s.

Molecule `COCC1CN(C2CCC2)CC12CCN(C(=O)c1ccsc1)CC2` (stereo not drawn) came in with an RP-LC retention time of 592 s.

In turn, `Cc1ccc(C)c(NC(=O)N2CCC(c3nc(C(=O)N(C)C)c(C)o3)CC2)c1` returned an RP-LC retention time of 711 s.

`Cn1nc(-c2nc(C3CC3)no2)c2c1CCN(C(=O)Nc1ccccc1)C2` returned an RP-LC retention time of 809 s.

The molecule `COc1ccccc1-c1nc(Cn2nnc(-c3nc(-c4cccc(C(F)(F)F)c4)no3)c2C)c(C)o1` came in with an RP-LC retention time of 1250 s.

In the case of `CC1CCN(S(=O)(=O)c2ccc3c(c2)CCCC(=O)N3CC(=O)NC2CCCC2)CC1`, the RP-LC retention time was determined as 874 s.

In turn, `CCOC(=O)c1ccc(NC(=O)CSc2cc(N3CCCC3)ncn2)cc1` yielded an RP-LC retention time of 828 s.

In the case of `Cn1ncc2c3ccccc3n(CC(=O)N3CCC(C(N)=O)CC3)c2c1=O`, the RP-LC retention time was 611 s.

Molecule `CSc1nnc(-c2nn(C)c3c2CN(C(=O)c2ccccc2F)CC3)n1C` showed an RP-LC retention time of 697 s.

In turn, `CCC(C)NC(=O)C1CCN(C2=NS(=O)(=O)C(c3ccc(OC)cc3)=C2C)CC1` (stereo not drawn) came in with an RP-LC retention time of 795 s.

In turn, `CCc1nc2c(=O)n(CC(=O)N3CCCC3)nc(C)c2s1` displayed an RP-LC retention time of 620 s.

For the molecule `COc1ccc(NC(=O)C2CCc3sc(C(=O)N4CCCC4)cc3C2)cc1OC` (stereo not drawn), the RP-LC retention time is 680 s.

`CNC(=O)CCc1nc2ccccc2n(CC(=O)N2CCOc3ccc(C)cc32)c1=O` had an RP-LC retention time of 728 s.

`COc1ccc(NC(=O)N2CCC(n3c(-c4ccco4)nc4cccnc43)C2)cc1F` (stereo not drawn) returned an RP-LC retention time of 690 s.

`CCCNC(=O)C1CCCN(c2ccc(SCC(=O)NCc3ccccc3)nn2)C1` (stereo not drawn) displayed an RP-LC retention time of 648 s.

`Cc1nc2ccn(Cc3cccnc3)c(=O)c2cc1C(=O)NCCC1=CCCCC1` came in with an RP-LC retention time of 648 s.

In turn, `CCOC(=O)c1ccccc1NC(=O)CN1CCC(Cn2cnc3ccccc32)CC1` registered an RP-LC retention time of 556 s.

Molecule `Cc1cc(N(C)C)nc(N2CCN(S(=O)(=O)c3ccc(-c4ccccc4)cc3)CC2)n1` gave an RP-LC retention time of 814 s.

Regarding `CC(C)Oc1ccc(-c2nc3ncccn3c2NC2CCCCC2)cc1`, the RP-LC retention time stood at 870 s.

Consider `CNC(=O)C1CCN(c2nc3ccc(-c4cccc(OC)c4)nc3s2)CC1`, for which the RP-LC retention time turned out to be 801 s.

Molecule `COc1ccccc1-c1c(C)nn2c(SCC(=O)NCCN(C)C)cc(C)nc12` returned an RP-LC retention time of 622 s.

In turn, `COc1ccc2c(c1)C1(CCN(C(=O)Nc3ccccc3)C1)C(=O)N2` (stereo not drawn) had an RP-LC retention time of 694 s.

Take `CCOC(=O)N1CCN(c2cc(C(=O)O)c3cc(NC(=O)COc4ccccc4)ccc3n2)CC1`: the RP-LC retention time was 629 s.

In turn, `CCCCOC(=O)c1ccc(NC(=O)c2cnc3scc(C)n3c2=O)cc1` came in with an RP-LC retention time of 1050 s.

The molecule `Cc1nc2nc(-c3ccccc3)nn2c(C)c1CC(=O)N1CCCCC1C` (stereo not drawn) showed an RP-LC retention time of 836 s.

`CCOC(=O)c1[nH]c(C)c(CCC(=O)N2CCC(C(=O)NCc3cccs3)CC2)c1C` yielded an RP-LC retention time of 755 s.

`CCOC(=O)c1c(C)[nH]c(C(=O)N2CCCC(C(=O)NC3CCCCC3)C2)c1C` (stereo not drawn): the RP-LC retention time was 838 s.

In the case of `Cc1ccc(C)c(NC(=O)C2CCN(S(=O)(=O)c3c(C)[nH]c(C)c3C(=O)N3CCCC3)CC2)c1`, the RP-LC retention time is 726 s.

`COCCN1CCC(N2CCN(S(=O)(=O)c3ccc(OC)c(Cl)c3)CC2)C1=O` (stereo not drawn) returned an RP-LC retention time of 583 s.

Regarding `COc1ccc(-c2cn3ccn(-c4ccc5c(c4)CCC5)c(=O)c3n2)cc1OC`, the RP-LC retention time came to 846 s.

As for `COc1ccc(N2CC(c3nc(-c4ccccc4F)no3)CC2=O)cc1OC` (stereo not drawn), the RP-LC retention time is 808 s.

The molecule `CS(=O)(=O)N1CCC2(CC1)CN(c1cccc(F)c1)C2c1ccccc1` (stereo not drawn) yielded an RP-LC retention time of 1150 s.

As for `Cc1ccc(S(=O)(=O)N2CCC(c3nc(C(=O)N4CCOCC4)c(C)o3)CC2)cc1C`, the RP-LC retention time was found to be 870 s.

For the molecule `O=c1ccn(-c2ccc(Cl)cc2)nc1-c1nc(-c2ccccc2OCc2ccccc2)no1`, the RP-LC retention time came to 845 s.

For the molecule `CN(C)c1cc(-n2cnc(C(=O)NCc3cccc(Cl)c3)c2)ncn1`, the RP-LC retention time was determined as 793 s.

With `COc1ccc2c(c1)C1(CCN(S(=O)(=O)c3ccc4c(c3)oc(=O)n4C)C1)C(=O)N2C` (stereo not drawn), the RP-LC retention time stood at 818 s.
